Experimental data taken from EP0293500A1, “3-heteroalkyl-2,4.quinzaoline-diones” (AMERICAN CYANAMID COMPANY, priority 1987, dated 1988).

What was measured:
thromboxane synthetase = target: T1, thromboxane synthetase (Rattus norvegicus, UniProt P49430); assay: Inhibition of thromboxane (TX) formation (TXB2 radioimmunoassay) in washed rat platelets; type: cell-based, Okamoto-Aoki spontaneously hypertensive rats (SHR); details: percent inhibition of TXB2 formation; drug at 10^-4M; SHR platelet suspension, 10 minutes at 37 C
T1 construct: The platelets were isolated by centrifuging the PRP for 10 minutes at 1060xg; from tissue; host or cells: washed blood platelets from Okamoto-Aoki spontaneously hypertensive rats (SHR)
T1 sequence (P49430 1-533): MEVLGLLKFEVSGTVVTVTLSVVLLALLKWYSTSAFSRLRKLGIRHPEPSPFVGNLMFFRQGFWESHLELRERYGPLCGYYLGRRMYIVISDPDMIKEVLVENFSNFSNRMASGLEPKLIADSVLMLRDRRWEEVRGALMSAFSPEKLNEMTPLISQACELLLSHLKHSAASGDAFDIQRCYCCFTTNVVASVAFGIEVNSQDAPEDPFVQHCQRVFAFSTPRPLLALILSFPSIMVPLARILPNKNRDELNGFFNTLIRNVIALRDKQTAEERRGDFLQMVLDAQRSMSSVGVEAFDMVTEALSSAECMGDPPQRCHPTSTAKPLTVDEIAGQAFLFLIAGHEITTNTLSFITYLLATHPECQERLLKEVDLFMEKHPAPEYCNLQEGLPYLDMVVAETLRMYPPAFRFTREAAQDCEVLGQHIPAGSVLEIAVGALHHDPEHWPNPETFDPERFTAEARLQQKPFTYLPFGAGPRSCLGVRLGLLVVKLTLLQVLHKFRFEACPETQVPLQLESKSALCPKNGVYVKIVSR
Excerpt: The platelet rich plasma (PRP) was separated. […] The inhibition of thromboxane (TX) formation was studied by determing the concentration of thromboxane […] (TXB2), the stable hydrolysis product of TXA2.

[1] = test system: spontaneously hypertensive rats of the Okamoto strain; assay: Hypotensive activity in spontaneously hypertensive rats (method of Chan and Poorvin); type: in vivo; details: male SHR, average MABP 160±1.5 mm of mercury; gavage, 100 mg/kg or less, second identical dose 24 hours later; MABP at 28 hours after the initial dose; number of rats in brackets
Description: The novel compounds of the present invention are also active hypotensive agents and were tested for hypotensive activity by the method of P. S. Chan and b. Poorvin, Clinical and Experimental Hypertension, 1 (6), 817-830 (1979). Male, 16 week old, spontaneously hypertensive rats of the Okamoto strain, from Taconic Farms, Germantown, New York having an average mean arterial blood pressure of 160±1.5 mm of mercury were used in the test. […] A second identical dose of the test compound, without sodium chloride loading is given 24 hours later. At 28 hours after the initial dose, the mean arterial blood pressure (MABP) is measured by the method of Chan and Poorvin vide supra. The procedure is repeated in a second and third rat when necessary. The results of this test on representative compounds of the present invention appear in Table II below.

SMILES	inhibition at 100 µM (thromboxane synthetase) [%]	MABP/mm Hg (no. of rats) [1]
CC(Cn1ccnc1)Cn1c(=O)[nH]c2ccccc2c1=O (stereo not drawn) [Example 21, 3-[3-(1H-Imidazol-1-yl)-2-methylpropyl]-2,4(1H,3H)-quinazolinedione]	100	112(2) mm Hg
CC(CCn1cnc2ccccc2c1=O)n1ccnc1.O=C(O)/C=C/C(=O)O (stereo not drawn) [3-[3-(1H-Imidazol-1-yl)butyl]-4(3H)-quinazolinone, fumarate salt]		119(2) mm Hg
O=c1c2ccc(Cl)cc2ncn1CCCCn1ccnc1 [Example 149, 7-Chloro-3-(4-(1H-imidazol-1-yl)butyl]-4(3H)-quinazolinone]		126(2) mm Hg
O=c1[nH]c2c(Cl)cccc2c(=O)n1CCCCn1ccnc1 [Example 43, 8-Chloro-3-[4-(1H-imidazol-1-yl)butyl]-2,4(1H,3H)-quinazolinedione]	62	85(2) mm Hg
Cl.O=c1c2cc(Br)ccc2nnn1CCCCn1ccnc1 [Example 82, 6-Bromo-3-[4-(1H-imidazol-1-yl)-butyl]-1,2,3-benzotriazin-4(3H)-one, monohydrochloride]	96	115(2) mm Hg
CCc1nc2ccc(Cl)cc2c(=O)n1CCCn1ccnc1 [Example 158, 6-Chloro-2-ethyl-3-[3-(1H-imidazol-1-yl)propyl]-4(3H)-quinazolinone]		120(4) mm Hg
O=c1[nH]c2ccccc2c(=O)n1CCCn1ccnc1 [Example 10, 3-[3-(1 H-Imidazol-1-yl)propyl]-2,4-(1H,3H)-quinazolinedione]	76	131(3) mm Hg
O=c1c2ccccc2nnn1CCCn1ccnc1 [3-[3-(1H-Imidazol-1-yl)propyl]-1,2,3-benzotriazin-4(3H)-one]	97	111(2) mm Hg
O=c1[nH]c2ccccc2c(=O)n1CCCCn1ccnc1 [Example 11, 3-[4-(1H-Imidazol-1-yl)butyl]-2,4(1H,3H)-quinazolinedione]	100	108(2) mm Hg
Cc1ccc2[nH]c(=O)n(CCC(C)n3ccnc3)c(=O)c2c1 (stereo not drawn) [Example 17, 3-[3-(1H-Imidazol-1-yl)butyl]-6-methyl-2,4(1H,3H)-quinazolinedione]	88	111(2) mm Hg
Cc1ccc2c(=O)n(CCCCn3ccnc3)c(=O)[nH]c2c1C [Example 50, 7,8-Dimethyl-3-[4-(1H-imidazol-1-yl)-butyl]-2,4(1H,3H)-quinazolinedione]		104(2) mm Hg
CC(CCn1c(=O)[nH]c2cc(Cl)ccc2c1=O)n1ccnc1 (stereo not drawn) [Example 41, 7-Chloro-3-[3-(1H-imidazol-1-yl)butyl]-2,4(1H,3H)-quinazolinedione]	51	128(2) mm Hg
CC(CCn1c(=O)[nH]c2ccccc2c1=O)n1ccnc1 (stereo not drawn) [Example 20, 3-[3-(1H-Imidazol-1-yl)butyl]-2,4(1H,3H)-quinazolinedione]	100	121(3) mm Hg
O=c1c2cc(Cl)ccc2nnn1CCCCn1ccnc1 [Example 88, 6-Chloro-3-[4-(1H-imidazol-1-yl)-butyl]-1,2,3-benzotriazin-4(3H)-one]		105(2) mm Hg
O=c1[nH]c2ccccc2c(=O)n1CCCCCn1ccnc1 [Example 18, 3-[5-(1 H-Imidazol-1-yl)pentyl]-2,4(1H,3H)-quinazolinedione]	98	104(2) mm Hg
CC(CCn1c(=O)[nH]c2c(Cl)cccc2c1=O)n1ccnc1 (stereo not drawn) [Example 44, 8-Chloro-3-[3-(1H-imidazol-1-yl)butyl]-2,4(1H,3H)-quinazolinedione]	71	112(2) mm Hg
Cl.Cl.O=c1c2ccccc2ncn1CCCCCn1ccnc1 [Example 137, 3-[5-(1H-Imidazol-1-yl)pentyl]-4(3H)-quinazolinone, dihydrochloride]		110(2) mm Hg

Further lines, with some results ahead:

inhibition at 100 µM (thromboxane synthetase) [%]	SMILES	MABP/mm Hg (no. of rats) [1]
70	Cc1cn(CCCCn2c(=O)[nH]c3ccc(Cl)cc3c2=O)cn1 [Example 28, 6-Chloro-3-[4-(4-methyl-1H-imidazol-1-yl)butyl]-2,4(1H,3H)-quinazolinedione]	118(2) mm Hg
74	O=c1c2cc(Cl)ccc2nnn1CCCn1ccnc1 [Example 76, 6-Chloro-3-[3-(1H-imidazol-1-yl)-propyl]-1,2,3-benzotriazin-4(3H)-one]	127(3) mm Hg
90	O=c1c2cc(Cl)ccc2nnn1CCCCCCCCn1ccnc1 [6-Chloro-3-[8-(1H-imidazol-1-yl)octyl]-1,2,3-benzotriazin-4(3H)-one, monohydro-chloride]	116(2) mm Hg
99	O=c1c2cc(Br)ccc2ncn1CCCCn1ccnc1 [Example 125, 6-Bromo-3-[4-(1H-imidazol-1-yl)-butyl]-4(3H)-quinazolinone, dihydro-chloride]	121(2) mm Hg
75	O=c1c2cc(Cl)ccc2ncn1CCCn1ccnc1 [Example 138, 6-Chloro-[3-(1H-imidazol-1-yl)propyl]-4(3H)-quinazolinone]	100(2) mm Hg
99	O=c1c2cc(Br)ccc2ncn1CCCn1ccnc1 [Example 126, 6-Bromo-3-[3-(1H-imidazol-1-yl)-propyl]-4(3H)-quinazolinone]	122(2) mm Hg
89	Cc1cn(CCCn2cnc3ccc(Cl)cc3c2=O)cn1 [Example 139, 6-Chloro-3-[3-(4-methyl-1H-imidazol-1-yl)propyl]-4(3H)-quinazolinone]	123(3) mm Hg
99	Cc1cn(CCCn2c(=O)[nH]c3ccc(Cl)cc3c2=O)cn1 [Example 26, 6-Chloro-3-[3-(4-methyl-1H-imidazol-1-yl)-propyl]-2,4(1H,3H)-quinazolinedione]	125(3) mm Hg
93	O=c1[nH]c2ccc(Cl)cc2c(=O)n1CCCCn1ccnc1 [Example 24, 6-Chloro-3-[4-(1H-imidazol-1-yl)butyl]-2,4(1H,3H)-quinazolinedione]	106(2) mm Hg
95	Cc1ccc2nnn(CCCCn3ccnc3)c(=O)c2c1 [Example 84, 3-[4-(1H-Imidazol-1-yl)butyl]-6-methyl-1,2,3-benzotriazin-4(3H)-one]	106(2) mm Hg
51	O=c1c2ccccc2ncn1CCCn1ccnc1 [Example 122, 3-[3-(1 H-Imidazol-1-yl)propyl]-4(3H)-quinazolinone]	139(2) mm Hg
98	CC(CCn1c(=O)[nH]c2ccc(Cl)cc2c1=O)n1ccnc1 (stereo not drawn) [Example 30, 6-Chloro-3-[3-(1H-imidazol-1-yl)-butyl]-2,4(1H,3H)-quinazolinedione]	113(2) mm Hg
98	Cc1cn(CCCn2c(=O)[nH]c3ccccc3c2=O)cn1 [Example 19, 3-[3-(4-Methyl-1H-imidazol-1-yl)propyl]-2,4(1H,3H)-quinazolinedione]	135(3) mm Hg
